Experimental data as given in patent US6187552A, “Method for identifying inhibitors of JAK2/cytokine receptor binding” (Pharmacia & Upjohn Company, priority 1998, dated 2001).

System: βc in human eosinophils
Assay: Tyrosine phosphorylation of βc in human eosinophils stimulated with IL-5 (immunoblot)
Format: cell-based
Details: FIG. 2
Experimental: Eosinophils were isolated from human whole blood or granulocyte leukapheresis packs obtained from Pharmacia and Upjohn Clinical Research Unit--Kalamazoo, Mich. Only blood from donors who had >5% peripheral blood eosinophils was used, while leukapheresis donors usually had 3-5% eosinophils. One unit of whole blood was divided among 50-ml polypropylene centrifuge tubes and centrifuged for 20 minutes at 300×g at room temperature (RT). The plasma was removed and 50 ml were centrifuged at 2500×g for 15 minutes at RT to remove platelets. The resulting platelet poor plasma (ppp) was diluted 1:4 in normal saline.
Immediately after purification, eosinophils were resuspended at 2×10^7 cells/ml in RPMI 1640 medium (GibcoBRL, Gaithersburg, Md.) supplemented with 1% fetal bovine serum (FBS, GibcoBRL, Gaithersburg,Md.) and incubated 2 min at 37°. Recombinant human IL-5 (Biosource, Camarillo, Calif.) diluted in PBS with 0.1% bovine serum albumin was added at 12.5 ng/ml for various times using 1×10^7 cells per data point. Tubes were placed on ice and 10 volumes of PBS with 0.1 mM sodium orthovanadate were added to each tube. Eosinophils were pelleted by centrifugation at 300×g and resuspended in 0.6 ml lysis buffer (20 mM Tris-Cl, pH 7.4, 100 mM NaCl, 10 mM sodium pyrophosphate, 2 mM EDTA, 50 mM NaF, 1 mM sodium orthovanadate, 3% Triton X-100) with protease inhibitors (10 μg/ml aprotinin, 10 μg/ml leupeptin, and 0.2 mM phenylmethylsulfonyl fluoride).
After incubation on ice for 15 min, debris was pelleted by centrifugation at 16,000×g. βc was immunoprecipitated from the lysate by rotating overnight at 4° with a 1:300 dilution of anti-βcantibody (Upstate Biotechnology, Lake Placid, N.Y.). Twenty microliters of protein A-Sepharose (Pharmacia Biotech, Uppsala, Sweden) were added to each lysate, and the incubation was continued one hour. […]

Q: Which “time of peak tyrosine phosphorylation of βc” value (12.5 ng/ml human IL-5, 37° C.) does the source give for “IL-5: Recombinant human IL-5 (Biosource)” here?
A: Its value is 5 to 10 min.

Q: And the “time to tyrosine phosphorylation of βc” value (12.5 ng/ml human IL-5, 37° C.)?
A: The value was ≤ 1 min.

Q: And the “time by which dephosphorylation was evident” value (12.5 ng/ml human IL-5, continued presence)?
A: Its value is ≤ 30 min.
